# According to patent US10508086B2 (CANCER RESEARCH TECHNOLOGY LIMITED, priority 2014, dated 2019):
# pEC50, pIC50: −log10 of the molar value.
# Key:
# PARG in HeLa cell line = PARG in HeLa cell line (Homo sapiens (Human), UniProt Q86W56); experiment: PARG cell assay (nuclear PAR chains after MMS, immunofluorescence); assay type: cell-based; conditions: HeLa cells, MMS 50 μg/mL; read-out: PARG Cell IC50 Geomean
# Method: This method is based on the detection of endogenous levels of poly (ADP) ribose chains present in the nucleus of HeLa cell line using indirect immunofluorescence. MMS stimulation increases PAR chains for up to 25 mins. After that point, PARG is active and breaks down the PAR chains, until by one hour after stimulation no PAR chains are detectable. Inhibition of PARG maintains PAR chains.
# Briefly, following compound treatment and treatment with the DNA damaging agent methylmethanesulfonate (MMS), the cell monolayer is fixed, then permeabilised and incubated with a mouse monoclonal antibody raised against multimers of poly(ADP) ribose. After an overnight incubation, excess antibody is removed by washing and an Alexafluor 488-linked secondary antibody which recognises the mouse monoclonal is added together with a nuclear stain (Hoechst 33342). Images of the cells are then captured and analysed on a High Content Screening platform and the total intensity of the nuclear fluorescent signal at […] is quantified.
# HeLa cells, seeded in 384-well plates, at 4000/well in 30 μL RPMI 1640 media, supplemented with 10% FBS and 2 mM Glutamax, were incubated overnight at 37° C., 5% CO2.
# The following day, cells were dosed in quadruplicate with compound (10 point dose response) and incubated for 1 h at 37° C., 5% CO2.
# At the end of the 1 h dosing period, MMS was added to duplicates at a final concentration of 50 μg/mL, for a further hour.
# Media was tipped off and the cells fixed with 50 μL ice-cold 95% MetOH/PBS for 15 mins at −20° C. Following a PBS wash, 50 μL PBS/0.1% Triton was added to the cells for 20 mins. Following another PBS wash, anti-PAR antibody (Calbiochem AM80) was diluted 1:4000 in a buffer (PBS+0.5% FBS+0.05% Tween20) and added to the cells and incubated overnight at 4° C.
# The following day, cells were washed three times with PBS and then incubated for 1 hr with secondary antibody (Alexa Fluor® 488 goat anti mouse IgG (H+L)) diluted 1:1000 and Hoechst diluted 1:5000 in buffer (5% FBS in PBS+0.05% Tween20).
# Cells were washed three times with PBS and the plate sealed with a light-proof seal.
# Images of the cells were captured on a ThermoFisher Celllnsight and the mean total intensity of spots fluorescent at 485 nm in the nucleus was reported.
# Human Full Length PARG = Human Full Length PARG (Homo sapiens (Human), UniProt Q86W56); experiment: PARG in vitro enzyme assay (TR-FRET); assay type: biochemical; conditions: read-out: PARG_EC50_ENZYME
# Chain of Human Full Length PARG (Q86W56 whole entry): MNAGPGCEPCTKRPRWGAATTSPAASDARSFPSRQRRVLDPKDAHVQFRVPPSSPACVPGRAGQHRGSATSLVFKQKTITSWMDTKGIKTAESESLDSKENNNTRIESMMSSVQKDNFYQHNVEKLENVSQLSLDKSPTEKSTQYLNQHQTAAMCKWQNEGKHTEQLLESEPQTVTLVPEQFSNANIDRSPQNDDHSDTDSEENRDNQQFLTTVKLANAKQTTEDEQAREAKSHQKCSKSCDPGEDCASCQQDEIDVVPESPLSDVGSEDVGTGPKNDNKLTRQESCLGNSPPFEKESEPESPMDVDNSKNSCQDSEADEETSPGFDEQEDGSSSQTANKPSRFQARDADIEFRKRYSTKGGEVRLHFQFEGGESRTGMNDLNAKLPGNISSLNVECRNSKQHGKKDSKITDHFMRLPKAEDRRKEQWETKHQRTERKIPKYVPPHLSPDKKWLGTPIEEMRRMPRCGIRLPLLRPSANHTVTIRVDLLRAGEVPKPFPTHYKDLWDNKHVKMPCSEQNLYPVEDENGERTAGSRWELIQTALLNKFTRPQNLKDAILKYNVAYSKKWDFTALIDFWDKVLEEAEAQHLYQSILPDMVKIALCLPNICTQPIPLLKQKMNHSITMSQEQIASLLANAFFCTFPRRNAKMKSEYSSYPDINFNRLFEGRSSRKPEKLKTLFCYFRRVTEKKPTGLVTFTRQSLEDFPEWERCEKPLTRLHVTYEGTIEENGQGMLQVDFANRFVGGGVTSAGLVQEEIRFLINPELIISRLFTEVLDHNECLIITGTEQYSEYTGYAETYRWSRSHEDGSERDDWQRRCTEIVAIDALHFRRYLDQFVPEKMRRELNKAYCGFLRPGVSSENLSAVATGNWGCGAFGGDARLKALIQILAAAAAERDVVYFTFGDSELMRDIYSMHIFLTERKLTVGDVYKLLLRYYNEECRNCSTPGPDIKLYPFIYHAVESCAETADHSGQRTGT
# In short: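 Full-length human PARG ([…]) incubated with ribosylated PARP substrate (4.5 nM) for 10 min at room temperature in Tris pH 7.4 buffer with EDTA, EGTA, DTT, KCl. Detection by TR-FRET using anti-6HIS XL665 (14 nM final) and streptavidin europium cryptate (0.75 nM final) after 60 min; Em665/Em620 ratio converted to percent inhibition.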
# Chain of PARG in HeLa cell line (Q86W56 whole entry): as above
pIC50 (PARG in HeLa cell line),pEC50 (Human Full Length PARG),SMILES
5.91,5.75,"Cc1nnc(-n2c(=O)n(C)c3ccc(S(=O)(=O)NC4(C)CC4)cc32)o1 [Example 189, 1-Methyl-N-(1-methylcyclopropyl)-3-(5-methyl-1,3,4-oxadiazol-2-yl)-2-oxo-benzimidazole-5-sulfonamide]"
6.39,6.03,"CCn1c(=O)n(-c2nnc(C)o2)c2cc(S(=O)(=O)NC3(C)CC3)ccc21 [Example 190, 1-Ethyl-N-(1-methylcyclopropyl)-3-(5-methyl-1,3,4-oxadiazol-2-yl)-2-oxo-benzimidazole-5-sulfonamide]"
6.09,6.01,"Cc1nnc(-n2c(=O)n(CCF)c3ccc(S(=O)(=O)NC4(C)CC4)cc32)o1 [Example 191, 1-(2-Fluoroethyl)-N-(1-methylcyclopropyl)-3-(5-methyl-1,3,4-oxadiazol-2-yl)-2-oxo-benzimidazole-5-sulfonamide]"
4.93,5.84,"Cc1nnc(-n2c(=O)[nH]c3cc(F)c(S(=O)(=O)NC4(C)CC4)cc32)o1 [Example 192, 6-Fluoro-N-(1-methylcyclopropyl)-3-(5-methyl-1,3,4-oxadiazol-2-yl)-2-oxo-1H-benzimidazole-5-sulfonamide]"
7.40,6.82,"C#CCn1c(=O)n(-c2nnc(C(F)F)s2)c2cc(S(=O)(=O)NC3(CF)CC3)ccc21 [Example 193, 3-[5-(Difluoromethyl)-1,3,4-thiadiazol-2-yl]-N-[1-(fluoromethyl)cyclopropyl]-2-oxo-1-prop-2-ynyl-benzimidazole-5-sulfonamide]"
< 4.52,5.91,"Cc1nnc(-n2c(=O)[nH]c3cc(F)c(S(=O)(=O)NC4(CF)CC4)cc32)o1 [Example 194, 6-Fluoro-N-[1-(fluoromethyl)cyclopropyl]-3-(5-methyl-1,3,4-oxadiazol-2-yl)-2-oxo-1H-benzimidazole-5-sulfonamide]"
6.34,6.00,"Cn1c(=O)n(-c2nnc(C(F)F)o2)c2cc(S(=O)(=O)NC3(C)CC3)ccc21 [Example 195, 3-[5-(Difluoromethyl)-1,3,4-oxadiazol-2-yl]-1-methyl-N-(1-methylcyclopropyl)-2-oxo-benzimidazole-5-sulfonamide]"
6.33,6.10,"Cn1c(=O)n(-c2nnc(C(F)F)o2)c2cc(S(=O)(=O)NC3(CF)CC3)ccc21 [Example 196, 3-[5-(Difluoromethyl)-1,3,4-oxadiazol-2-yl]-N-[1-(fluoromethyl)cyclopropyl]-1-methyl-2-oxo-benzimidazole-5-sulfonamide]"
6.27,6.12,"Cc1nnc(-n2c(=O)n(C)c3cc(F)c(S(=O)(=O)NC4(C)CC4)cc32)o1 [Example 197, 6-Fluoro-1-methyl-N-(1-methylcyclopropyl)-3-(5-methyl-1,3,4-oxadiazol-2-yl)-2-oxo-benzimidazole-5-sulfonamide]"
6.53,6.38,"Cc1nnc(-n2c(=O)n(CCF)c3cc(F)c(S(=O)(=O)NC4(C)CC4)cc32)o1 [Example 198, 6-Fluoro-1-(2-fluoroethyl)-N-(1-methylcyclopropyl)-3-(5-methyl-1,3,4-oxadiazol-2-yl)-2-oxo-benzimidazole-5-sulfonamide]"
6.84,6.50,"CCn1c(=O)n(-c2nnc(C(F)F)o2)c2cc(S(=O)(=O)NC3(C)CC3)c(F)cc21 [Example 199, 3-[5-(Difluoromethyl)-1,3,4-oxadiazol-2-yl]-1-ethyl-6-fluoro-N-(1-methylcyclopropyl)-2-oxo-benzimidazole-5-sulfonamide]"
6.72,6.12,"CCn1c(=O)n(-c2nnc(C(F)F)o2)c2cc(S(=O)(=O)NC3(C)CC3)ccc21 [Example 201, 3-[5-(Difluoromethyl)-1,3,4-oxadiazol-2-yl]-1-ethyl-N-(1-methylcyclopropyl)-2-oxo-benzimidazole-5-sulfonamide]"
6.62,6.38,"CCn1c(=O)n(-c2nnc(C(F)F)o2)c2cc(S(=O)(=O)NC3(CF)CC3)ccc21 [Example 202, 3-[5-(Difluoromethyl)-1,3,4-oxadiazol-2-yl]-1-ethyl-N-[1-(fluoromethyl)cyclopropyl]-2-oxo-benzimidazole-5-sulfonamide]"
5.43,5.32,"COCCn1c(=O)n(-c2ccc(C)nn2)c2cc(S(=O)(=O)NC3(CF)CC3)c(F)cc21 [Example 203, 6-Fluoro-N-[1-(fluoromethyl)cyclopropyl]-1-(2-methoxyethyl)-3-(6-methylpyridazin-3-yl)-2-oxo-benzimidazole-5-sulfonamide]"
5.37,5.21,"Cc1ccc(-n2c(=O)n(C)c3cc(F)c(S(=O)(=O)NC4(CF)CC4)cc32)nn1 [Example 204, 6-Fluoro-N-[1-(fluoromethyl)cyclopropyl]-1-methyl-3-(6-methylpyridazin-3-yl)-2-oxo-benzimidazole-5-sulfonamide]"
5.24,5.17,"Cc1ccc(-n2c(=O)n(C)c3cc(F)c(S(=O)(=O)NC4(C)CC4)cc32)nn1 [Example 205, 6-Fluoro-1-methyl-N-(1-methylcyclopropyl)-3-(6-methylpyridazin-3-yl)-2-oxo-benzimidazole-5-sulfonamide]"
6.01,5.40,"Cn1c(=O)n(-c2ccc(C(F)(F)F)nn2)c2cc(S(=O)(=O)NC3(CF)CC3)c(F)cc21 [Example 206, 6-Fluoro-N-[1-(fluoromethyl)cyclopropyl]-1-methyl-2-oxo-3-[6-(trifluoromethyl)pyridazin-3-yl]benzimidazole-5-sulfonamide]"
7.62,6.88,"CCn1c(=O)n(-c2nnc(C(F)F)s2)c2cc(S(=O)(=O)NC3(C)CC3)c(F)cc21 [Example 207, 3-[5-(Difluoromethyl)-1,3,4-thiadiazol-2-yl]-1-ethyl-6-fluoro-N-(1-methylcyclopropyl)-2-oxo-benzimidazole-5-sulfonamide]"
6.66,6.03,"Cn1c(=O)n(-c2nnc(C(F)F)o2)c2cc(S(=O)(=O)NC3(C)CC3)c(F)cc21 [Example 209, 3-[5-(Difluoromethyl)-1,3,4-oxadiazol-2-yl]-6-fluoro-1-methyl-N-(1-methylcyclopropyl)-2-oxo-benzimidazole-5-sulfonamide]"
6.65,6.46,"Cn1c(=O)n(-c2nnc(C(F)F)o2)c2cc(S(=O)(=O)NC3(CF)CC3)c(F)cc21 [Example 210, 3-[5-(Difluoromethyl)-1,3,4-oxadiazol-2-yl]-6-fluoro-N-[1-(fluoromethyl)cyclopropyl]-1-methyl-2-oxo-benzimidazole-5-sulfonamide]"
5.82,6.78,"NC(=O)Cn1c(=O)n(-c2nnc(C(F)F)s2)c2cc(S(=O)(=O)NC3(CF)CC3)c(F)cc21 [Example 214, 2-[3-[5-(Difluoromethyl)-1,3,4-thiadiazol-2-yl]-6-fluoro-5-[[1-(fluoromethyl)cyclopropyl]sulfamoyl]-2-oxo-benzimidazol-1-yl]acetamide]"
7.07,6.77,"N#CCn1c(=O)n(-c2nnc(C(F)F)s2)c2cc(S(=O)(=O)NC3(CF)CC3)c(F)cc21 [Example 215, 1-(Cyanomethyl)-3-[5-(difluoromethyl)-1,3,4-thiadiazol-2-yl]-6-fluoro-N-[1-(fluoromethyl)cyclopropyl]-2-oxo-benzimidazole-5-sulfonamide]"
